Measured values reported in patent US11739100B2, “2,3-dihydro-1h-imidazo{1,2-a}pyrimidin-5-one and this 1,2,3,4-tetrahydropyrimido{1,2-a}pyrimidin-6-one derivatives comprising a substituted morpholine, preparation thereof and pharmaceutical use thereof” (SANOFI, priority 2012, dated 2023).

Target: T1, recombinant Vps34 (Homo sapiens, UniProt Q8NEB9)
T1 construct: purchased Invitrogen PV5126
Test: Phosphorylation of phosphatidylinositol (PI) by Vps34 in vitro, ADP detected by TR-FRET (HTRF Transcreener ADP)
Assay type: biochemical
Conditions: 10 μM ATP, 55 μg/ml PI, approximately 3 nM Vps34, 1 hour at ambient temperature; absolute IC50, mean of two independent experiments; read-out: IC50 activity range

T1 sequence (Q8NEB9 whole entry): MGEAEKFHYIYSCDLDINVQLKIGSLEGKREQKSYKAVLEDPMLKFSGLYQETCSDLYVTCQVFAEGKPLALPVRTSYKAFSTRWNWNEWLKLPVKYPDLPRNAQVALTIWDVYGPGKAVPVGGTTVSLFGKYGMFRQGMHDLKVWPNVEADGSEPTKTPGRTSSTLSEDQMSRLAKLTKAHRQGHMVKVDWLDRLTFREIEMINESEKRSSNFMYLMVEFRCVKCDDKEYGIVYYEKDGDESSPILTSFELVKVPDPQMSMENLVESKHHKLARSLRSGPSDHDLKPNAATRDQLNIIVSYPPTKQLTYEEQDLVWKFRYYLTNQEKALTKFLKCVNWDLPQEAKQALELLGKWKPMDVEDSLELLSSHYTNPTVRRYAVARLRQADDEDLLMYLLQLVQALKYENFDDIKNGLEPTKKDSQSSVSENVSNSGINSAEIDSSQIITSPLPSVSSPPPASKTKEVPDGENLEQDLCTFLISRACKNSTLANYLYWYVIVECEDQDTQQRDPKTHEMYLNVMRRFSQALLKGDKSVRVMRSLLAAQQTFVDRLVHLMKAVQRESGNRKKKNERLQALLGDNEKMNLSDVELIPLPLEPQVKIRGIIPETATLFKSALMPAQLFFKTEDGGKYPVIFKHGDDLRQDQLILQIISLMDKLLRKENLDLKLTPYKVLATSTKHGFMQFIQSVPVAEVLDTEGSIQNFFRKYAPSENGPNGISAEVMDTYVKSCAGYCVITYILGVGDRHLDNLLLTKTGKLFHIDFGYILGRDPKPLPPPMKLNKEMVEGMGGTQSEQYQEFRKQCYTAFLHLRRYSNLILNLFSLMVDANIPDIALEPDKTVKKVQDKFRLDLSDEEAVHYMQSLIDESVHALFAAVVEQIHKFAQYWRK

Compound: CC(=O)N1c2nc(N3CCOC[C@H]3C)cc(=O)n2CC[C@H]1C(F)(F)F [Example 238, (S)-9-Acetyl-2-((R)-3-methylmorpholin-4-yl)-8-trifluoromethyl-6,7,8,9-tetrahydro-pyrimido[1,2-a]-pyrimidin-4-one]
- IC50: > 0.1 µM

Compound: C[C@@H]1COCCN1c1cc(=O)n2c(n1)N(Cc1ncco1)[C@](C)(C(F)(F)F)CC2 [Example 239, (S)-8-Methyl-2-((R)-3-methylmorpholin-4-yl)-9-oxazol-2-ylmethyl-8-trifluoromethyl-6,7,8,9-tetrahydro-pyrimido[1,2-a]-pyrimidin-4-one]
- IC50: < 0.01 µM

Compound: Cc1nc(CN2c3nc(N4CCOC[C@H]4C)cc(=O)n3C[C@@]2(C)C(F)(F)F)no1 [Example 240, (S)-2-Methyl-7-((R)-3-methylmorpholin-4-yl)-1-(5-methyl-[1,2,4]oxadiazol-3-yl-methyl)-2-trifluoromethyl-2,3-dihydro-1H-imidazo[1,2-a]-pyrimidin-5-one]
- IC50: < 0.01 µM

Compound: C[C@@H]1COCCN1c1cc(=O)n2c(n1)N(CC(=O)C1CC1)[C@H](C(F)(F)F)CC2 [Example 241, (S)-9-(2-Cyclopropyl-2-oxoethyl)-2-((R)-3-methylmorpholin-4-yl)-8-trifluoromethyl-6,7,8,9-tetrahydro-pyrimido[1,2-a]-pyrimidin-4-one]
- IC50: < 0.01 µM

Compound: C[C@@H]1COCCN1c1cc(=O)n2c(n1)N(CC(=O)c1nccs1)[C@H](C(F)(F)F)CC2 [Example 242, (S)-2-((R)-3-Methyl-morpholin-4-yl)-9-(2-oxo-2-thiazol-2-yl-ethyl)-8-trifluoromethyl-6,7,8,9-tetrahydro-pyrimido[1,2-a]-pyrimidin-4-one]
- IC50: < 0.01 µM

Compound: C[C@@H]1COCCN1c1cc(=O)n2c(n1)N(CC(=O)OC1CCCC1)[C@H](C(F)(F)F)CC2 [Example 243, [(S)-8-((R)-3-Methyl-morpholin-4-yl)-6-oxo-2-trifluoromethyl-3,4-dihydro-2H,6H-pyrimido[1,2-a]-pyrimidin-1-yl]acetic acid cyclopentyl ester]
- IC50: < 0.01 µM

Compound: C[C@@H]1COCCN1c1cc(=O)n2c(n1)N(CC(=O)C1CCCC1)[C@H](C(F)(F)F)CC2 [Example 244, (S)-9-(2-Cyclopentyl-2-oxoethyl)-2-((R)-3-methylmorpholin-4-yl)-8-trifluoromethyl-6,7,8,9-tetrahydro-pyrimido[1,2-a]-pyrimidin-4-one]
- IC50: < 0.01 µM

Compound: C[C@@H]1COCCN1c1cc(=O)n2c(n1)N(CC(=O)C1CCOCC1)[C@H](C(F)(F)F)CC2 [Example 245, (S)-2-((R)-3-Methyl-morpholin-4-yl)-9-[2-oxo-2-(tetrahydro-pyran-4-yl)ethyl]-8-trifluoromethyl-6,7,8,9-tetrahydro-pyrimido[1,2-a]-pyrimidin-4-one]
- IC50: < 0.01 µM

Compound: CC(C)c1nc(CN2c3nc(N4CCOC[C@H]4C)c(F)c(=O)n3CC[C@H]2C(F)(F)F)no1 [Example 246, (S)-3-Fluoro-9-(5-isopropyl-[1,2,4]oxadiazol-3-yl-methyl)-2-((R)-3-methylmorpholin-4-yl)-8-trifluoromethyl-6,7,8,9-tetrahydro-pyrimido[1,2-a]-pyrimidin-4-one]
- IC50: < 0.01 µM

Compound: C[C@@H]1COCCN1c1nc2n(c(=O)c1F)CC[C@@H](C(F)(F)F)N2Cc1noc(C2CC2)n1 [Example 247, (S)-9-(5-Cyclopropyl-[1,2,4]oxadiazol-3-yl-methyl)-3-fluoro-2-((R)-3-methyl-morpholin-4-yl)-8-trifluoromethyl-6,7,8,9-tetrahydro-pyrimido[1,2-a]-pyrimidin-4-one]
- IC50: < 0.01 µM

Compound: CC(C)c1noc(CN2c3nc(N4CCOC[C@H]4C)c(F)c(=O)n3CC[C@H]2C(F)(F)F)n1 [Example 248, (S)-3-Fluoro-9-(3-isopropyl-[1,2,4]oxadiazol-5-yl-methyl)-2-((R)-3-methylmorpholin-4-yl)-8-trifluoromethyl-6,7,8,9-tetrahydro-pyrimido[1,2-a]-pyrimidin-4-one]
- IC50: < 0.01 µM

Compound: C[C@@H]1COCCN1c1nc2n(c(=O)c1F)CC[C@@H](C(F)(F)F)N2Cc1nc(C2CC2)no1 [Example 249, (S)-9-(3-Cyclopropyl-[1,2,4]oxadiazol-5-yl-methyl)-3-fluoro-2-((R)-3-methyl-morpholin-4-yl)-8-trifluoromethyl-6,7,8,9-tetrahydro-pyrimido[1,2-a]-pyrimidin-4-one]
- IC50: < 0.01 µM

Compound: C[C@@H]1COCCN1c1nc2n(c(=O)c1F)CC[C@@H](C(F)(F)F)N2Cc1nc(C(C)(C)C)no1 [Example 250, (S)-9-(3-tert-Butyl-[1,2,4]oxadiazol-5-yl-methyl)-3-fluoro-2-((R)-3-methyl-morpholin-4-yl)-8-trifluoromethyl-6,7,8,9-tetrahydro-pyrimido[1,2-a]-pyrimidin-4-one]
- IC50: < 0.01 µM

Compound: C[C@@H]1COCCN1c1nc2n(c(=O)c1F)CC[C@@H](C(F)(F)F)N2Cc1nc(C(F)(F)F)no1 [Example 251, (S)-3-Fluoro-2-((R)-3-methylmorpholin-4-yl)-8-trifluoromethyl-9-(3-trifluoromethyl-[1,2,4]oxadiazol-5-yl-methyl)-6,7,8,9-tetrahydro-pyrimido[1,2-a]-pyrimidin-4-one]
- IC50: < 0.01 µM

Compound: CC(C)C(=O)CN1c2nc(N3CCOC[C@H]3C)cc(=O)n2CC[C@@]1(C)C(F)(F)F [Example 252, (S)-8-Methyl-2-((R)-3-methylmorpholin-4-yl)-9-(3-methyl-2-oxo-butyl)-8-trifluoromethyl-6,7,8,9-tetrahydro-pyrimido[1,2-a]-pyrimidin-4-one]
- IC50: < 0.01 µM

Compound: C[C@@H]1COCCN1c1cc(=O)n2c(n1)N(CC(=O)C1(C)CCCC1)[C@H](C(F)(F)F)CC2 [Example 253, (S)-9-[2-(1-Methyl-cyclopentyl)-2-oxo-ethyl]-2-((R)-3-methyl-morpholin-4-yl)-8-trifluoromethyl-6,7,8,9-tetrahydro-pyrimido[1,2-a]-pyrimidin-4-one]
- IC50: < 0.01 µM

Compound: CC(C)OC(=O)CN1c2nc(N3CCOC[C@H]3C)cc(=O)n2CC[C@H]1C(F)(F)F [Example 254, [(S)-8-((R)-3-Methyl-morpholin-4-yl)-6-oxo-2-trifluoromethyl-3,4-dihydro-2H,6H-pyrimido[1,2-a]-pyrimidin-1-yl]acetic acid isopropyl ester]
- IC50: < 0.01 µM

Compound: C[C@@H]1COCCN1c1cc(=O)n2c(n1)N(Cc1ccnc(F)c1)[C@H](C(F)(F)F)CC2 [Example 257, (S)-9-(2-Fluoropyridin-4-ylmethyl)-2-((R)-3-methylmorpholin-4-yl)-8-trifluoromethyl-6,7,8,9-tetrahydro-pyrimido[1,2-a]-pyrimidin-4-one]
- IC50: < 0.01 µM

Compound: C[C@@H]1COCCN1c1cc(=O)n2c(n1)N(CC(=O)C1CCCCC1)[C@H](C(F)(F)F)CC2 [Example 258, (S)-9-(2-Cyclohexyl-2-oxoethyl)-2-((R)-3-methylmorpholin-4-yl)-8-trifluoromethyl-6,7,8,9-tetrahydro-pyrimido[1,2-a]-pyrimidin-4-one]
- IC50: < 0.01 µM

Compound: C[C@@H]1COCCN1c1cc(=O)n2c(n1)N(Cc1ccnnc1)[C@H](C(F)(F)F)CC2 [Example 259, (S)-2-((R)-3-methyl-morpholin-4-yl)-9-pyridazin-4-ylmethyl-8-trifluoromethyl-6,7,8,9-tetrahydro-pyrimido[1,2-a]-pyrimidin-4-one]
- IC50: < 0.01 µM

Compound: C[C@@H]1COCCN1c1cc(=O)n2c(n1)N(CC(=O)OC(C)(C)C)[C@H](C(F)(F)F)CC2 [Example 260, [(S)-8-((R)-3-Methyl-morpholin-4-yl)-6-oxo-2-trifluoromethyl-3,4-dihydro-2H,6H-pyrimido[1,2-a]-pyrimidin-1-yl]acetic acid tert-butyl ester]
- IC50: < 0.01 µM

Compound: C[C@@H]1COCCN1c1cc(=O)n2c(n1)N(CC(=O)C1CCCN1C(=O)OC(C)(C)C)[C@H](C(F)(F)F)CC2 (stereo partly drawn) [Example 261, 2-{2-[(S)-8-((R)-3-Methylmorpholin-4-yl)-6-oxo-2-trifluoromethyl-3,4-dihydro-2H,6H-pyrimido[1,2-a]-pyrimidin-1-yl]acetyl}-pyrrolidine-1-carboxylic acid tert-butyl ester]
- IC50: 0.01 to 0.1 µM

Compound: COC(=O)CN1c2nc(N3CCOC[C@H]3C)cc(=O)n2CC[C@H]1C(F)(F)F [Example 262, [(S)-8-((R)-3-Methyl-morpholin-4-yl)-6-oxo-2-trifluoromethyl-3,4-dihydro-2H,6H-pyrimido[1,2-a]-pyrimidin-1-yl]acetic acid methyl ester]
- IC50: < 0.01 µM

Compound: C[C@@H]1COCCN1c1cc(=O)n2c(n1)N(CC(N)=O)[C@H](C(F)(F)F)CC2 [Example 263, 2-[(S)-8-((R)-3-Methyl-morpholin-4-yl)-6-oxo-2-trifluoromethyl-3,4-dihydro-2H,6H-pyrimido[1,2-a]-pyrimidin-1-yl]-acetamide]
- IC50: > 0.1 µM

Compound: C[C@@H]1COCCN1c1cc(=O)n2c(n1)N(Cc1nnc[nH]1)[C@H](C(F)(F)F)CC2 [Example 264, (S)-2-((R)-3-Methyl-morpholin-4-yl)-9-(4H-[1,2,4]triazol-3-yl-methyl)-8-trifluoromethyl-6,7,8,9-tetrahydro-pyrimido[1,2-a]-pyrimidin-4-one]
- IC50: < 0.01 µM

Compound: C[C@@H]1COCCN1c1cc(=O)n2c(n1)N(CC(=O)C1CCNCC1)[C@H](C(F)(F)F)CC2 [Example 265, (S)-2-((R)-3-Methyl-morpholin-4-yl)-9-(2-oxo-2-piperidin-4-yl-ethyl)-8-trifluoromethyl-6,7,8,9-tetrahydro-pyrimido[1,2-a]-pyrimidin-4-one]
- IC50: 0.01 to 0.1 µM

Compound: CC(C)=CCN1c2nc(N3CCOC[C@H]3C)cc(=O)n2CC[C@H]1C(F)(F)F [Example 266, (S)-9-(3-Methyl-but-2-enyl)-2-((R)-3-methyl-morpholin-4-yl)-8-trifluoromethyl-6,7,8,9-tetrahydro-pyrimido[1,2-a]-pyrimidin-4-one]
- IC50: < 0.01 µM

Compound: C[C@@H]1COCCN1c1cc(=O)n2c(n1)N(CCC(C)(C)F)[C@H](C(F)(F)F)CC2 [Example 267, (S)-9-(3-Fluoro-3-methylbutyl)-2-((R)-3-methylmorpholin-4-yl)-8-trifluoromethyl-6,7,8,9-tetrahydro-pyrimido[1,2-a]-pyrimidin-4-one]
- IC50: < 0.01 µM
